According to paper PMC5628579, “Potent mechanism-based sirtuin-2-selective inhibition by an in situ-generated occupant of the substrate-binding site, “selectivity pocket” and NAD^+-binding site” (Chemical Science, 2017):

Assays:
[1] = target: T1, SIRT2 (Homo sapiens, UniProt Q8IXJ6); assay: SIRT2 substrate competition analysis and time-dependent inhibition; format: biochemical; design: purchased Biomol / Enzo Life Sciences (Fluor de Lys kit AK-556) BML SE-251-0500
T1 sequence (Q8IXJ6 1-389): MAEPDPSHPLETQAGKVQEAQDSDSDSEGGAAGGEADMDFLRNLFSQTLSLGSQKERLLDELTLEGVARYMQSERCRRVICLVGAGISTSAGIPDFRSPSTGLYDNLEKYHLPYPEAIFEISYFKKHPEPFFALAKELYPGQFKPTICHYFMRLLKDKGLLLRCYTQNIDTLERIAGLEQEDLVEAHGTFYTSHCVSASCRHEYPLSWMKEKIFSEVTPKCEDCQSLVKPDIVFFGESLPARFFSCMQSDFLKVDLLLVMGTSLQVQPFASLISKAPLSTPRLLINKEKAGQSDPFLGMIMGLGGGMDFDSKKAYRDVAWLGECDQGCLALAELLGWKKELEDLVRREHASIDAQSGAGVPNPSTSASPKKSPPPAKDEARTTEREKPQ
Protocol: added to the blank wells). […] Thereafter, […]
which three independent curves were generated. […]
added to the blank wells).
The results were plotted using GraFit 7.0.3.
SIRT2 substrate competition analysis for 36
The assay follows in general the same procedure reported for the SIRT2 assay (vide supra), except for the following changes: reaction time = 45 min; [NAD+] = 2 mM; [substrate] = 50, 80, 150, or […]
Mass spectrometric detection of the ADP-ribose conjugate
Reactions were conducted for 5 min at 37 °C in 5 μL containing 1.9 μM SIRT2 (SignalChem), 500 μM NAD+ or 6-AE-NAD+ (BIOLOG Life Science Institute), and 1 mM 36, as well as 40 mM sodium phosphate buffer (pH = 7.0), containing 240 mM NaCl, 120 mM imidazole, 0.08 mM PMSF, 0.2 mM DTT, 20% glycerol, and 2% DMSO. Controls were measured in the absence of compounds or the enzyme. The reaction mixtures were diluted with 5 μL of water and purified using ZipTip-μC18 (Millipore). The fraction eluted with 2 μL of 50% acetonitrile containing α-cyano-4-hydroxycinnamic acid at a concentration of 5 mg/mL was directly subjected to MALDI-TOF MS analysis. MALDI-TOF mass spectra were acquired on an AB SCIEX TOF/TOF™ 5800 (AB SCIEX) in reflectron […]

[2] = target: T1, SIRT2; assay: Fluor de Lys SIRT2 assay
[3] = target: T2, SIRT3 (Homo sapiens, UniProt Q9NTG7); assay: Fluor de Lys SIRT3 assay
T2 sequence (Q9NTG7 1-399): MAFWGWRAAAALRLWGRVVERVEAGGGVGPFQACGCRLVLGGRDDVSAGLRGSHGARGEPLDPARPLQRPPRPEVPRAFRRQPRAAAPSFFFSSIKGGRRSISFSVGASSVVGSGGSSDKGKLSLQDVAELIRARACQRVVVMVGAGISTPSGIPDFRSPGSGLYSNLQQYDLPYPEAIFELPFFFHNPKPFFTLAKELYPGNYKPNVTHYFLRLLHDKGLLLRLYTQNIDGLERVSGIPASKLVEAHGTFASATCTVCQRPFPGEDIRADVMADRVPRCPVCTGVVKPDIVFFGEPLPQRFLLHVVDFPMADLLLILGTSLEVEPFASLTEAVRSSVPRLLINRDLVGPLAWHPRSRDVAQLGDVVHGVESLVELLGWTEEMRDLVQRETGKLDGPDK

**Q.** With `C[C@H](NC(=O)[C@H](CCCCNC(=S)CNC(=O)c1ccccc1Nc1cccc(OCCc2ccccc2)c1)NC(=O)OCc1ccccc1)C(N)=O` [Compound 36] as the compound, how does the “mode of SIRT2 inhibition (substrate competition analysis)” value ([1]; Lineweaver–Burk plot, NAD+ saturation) read?
**A.** competitive inhibition with the acetylated lysine substrate

**Q.** What about the “time dependence of SIRT2 inhibitory effect” value ([1]; incubation 0–120 min with SIRT2, acetylated substrate, NAD+) of the same compound?
**A.** time-dependent

**Q.** And the IC50 [2]?
**A.** 0.055 ± 0.0035 µM

**Q.** What about the inhibition at 1 µM ([2]; read-out: % inhibition at 1 μM SIRT2) of the same compound?
**A.** 100 ± 3.4%

**Q.** What about the “SIRT1 [IC50]/SIRT2 [IC50]” value ([2]; selectivity ratio) of the same compound?
**A.** 28.4

**Q.** And the “SIRT3 [IC50]/SIRT2 [IC50]” value ([2]; selectivity ratio)?
**A.** 172.5

**Q.** And the IC50 [3]?
**A.** 9.49 ± 1.7 µM

**Q.** What about the inhibition at 1 µM ([3]; read-out: % inhibition at 1 μM SIRT3) of the same compound?
**A.** 2 ± 1.8%
